Where two headings read alike, the source gives them in different places.

The target in assay [1] is T1, aromatase (microsomes from the human placenta) (Homo sapiens, UniProt P11511).
T1 construct: using microsomes from the human placenta as source of the enzyme; from tissue; host or cells: human placenta microsomes
T1 sequence (P11511 1-503): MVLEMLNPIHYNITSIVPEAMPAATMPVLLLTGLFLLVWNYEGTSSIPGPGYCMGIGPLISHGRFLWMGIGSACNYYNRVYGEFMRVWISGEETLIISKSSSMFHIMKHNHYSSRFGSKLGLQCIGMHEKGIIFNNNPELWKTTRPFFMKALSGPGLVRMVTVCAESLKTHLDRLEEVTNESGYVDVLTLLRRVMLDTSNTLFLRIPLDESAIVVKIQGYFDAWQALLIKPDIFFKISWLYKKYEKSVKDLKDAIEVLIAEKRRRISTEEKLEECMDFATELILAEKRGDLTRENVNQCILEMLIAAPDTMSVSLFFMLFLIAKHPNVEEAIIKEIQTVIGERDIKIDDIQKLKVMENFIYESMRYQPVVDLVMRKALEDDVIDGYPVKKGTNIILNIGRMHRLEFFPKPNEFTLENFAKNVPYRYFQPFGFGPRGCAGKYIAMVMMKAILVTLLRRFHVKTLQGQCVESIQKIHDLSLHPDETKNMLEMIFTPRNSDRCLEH
Briefly: Aromatase inhibition in vitro, tritiated water method, human placenta microsomes. Type of assay: biochemical.

Assay [2] has as its system uterine hypertrophy induced by androstenedione. Put plainly: Activity in vivo: inhibition of uterine hypertrophy induced by androstenedione. On the set-up: species or system rat (Sprague-Dawley). The settings on record: Rattus norvegicus, 96 h, immature female rats, androstenedione 30 mg/kg for 4 days, read-out: % inhibition to doses (μg/Kg); for inhibition in vivo at 0.01 mg/kg: dose 10 μg/Kg; for inhibition in vivo at 0.1 mg/kg: dose 100 μg/Kg; for inhibition in vivo at 1 mg/kg: dose 1000 μg/Kg; for inhibition in vivo at 0.001 mg/kg: dose 1 μg/Kg; for inhibition in vivo at 0.003 mg/kg: dose 3 μg/Kg. The procedure:
The activity in vivo of aromatase inhibition by compounds of formula (I) according to the invention has been tested according to the model established by Bharnagar et al. (1990).
In general, immature female rats of the Sprague-Dawley line of a weight ranging from 40 to 50 g have been treated with a dose of androstenedione at 30 mg/kg for 4 days, in the absence or in the presence of doses of various compounds of formula (I).
Four hours after administration of an aromatase inhibitor, the rats were sacrificed. Their uteruses were removed, cleared of adhering fat and conjunctive tissue, next the uteruses were weighed (wet weight). The dry weight of the uteruses was determined the following day after a step of drying for one night at 80° C.

The next assay has as its target aromatase (e) (UniProt O46512). The class given is biochemical. The settings on record: value marked (e); read-out: Activity In vitro IC50(nM), (e).
[3] abbreviates: value marked (h), read-out: Activity In vitro IC50(nM), (h).
Where [4] appears, read: value without (h)/(e) mark, read-out: Activity In vitro IC50.

Sequence of aromatase (e) (O46512 whole entry): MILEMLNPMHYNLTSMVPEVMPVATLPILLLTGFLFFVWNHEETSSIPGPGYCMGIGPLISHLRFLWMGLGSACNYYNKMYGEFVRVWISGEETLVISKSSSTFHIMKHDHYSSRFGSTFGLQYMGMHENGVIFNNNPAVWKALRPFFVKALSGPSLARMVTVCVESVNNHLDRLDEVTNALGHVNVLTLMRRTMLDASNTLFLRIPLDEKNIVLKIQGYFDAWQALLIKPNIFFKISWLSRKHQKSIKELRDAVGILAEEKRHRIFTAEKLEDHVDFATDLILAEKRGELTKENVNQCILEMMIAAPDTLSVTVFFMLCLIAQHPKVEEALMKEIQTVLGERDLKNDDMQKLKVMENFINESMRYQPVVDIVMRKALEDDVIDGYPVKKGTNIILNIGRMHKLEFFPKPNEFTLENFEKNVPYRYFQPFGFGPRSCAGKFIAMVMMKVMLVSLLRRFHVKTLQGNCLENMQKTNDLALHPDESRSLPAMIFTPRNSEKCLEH

For `Cn1c(=O)oc2cc(C(c3ccccc3)n3cnnc3)ccc21` (centres unmarked), the IC50 (commonly the concentration at which inhibition is half-maximal) in assay [1] (setting [3]) was over 3000 nM.

On to “5-[(4-Cyanophenyl)(1H-1,2,4-triazol-1-yl)methyl]-6-methoxy-1,3-benzoxazol-2(3H)-one [GCA37]”, for which the IC50 in assay [1] (setting [4]) was 328 nM.

In the case of `Cn1c(=O)sc2cc(C(c3ccccc3)n3ccnc3)ccc21` (racemic) [(+/−)PCH28, 6-[1H-Imidazol-1-yl(phenyl)methyl]-3-methyl-1,3-benzothiazol-2(3H)-one], in assay [2], the inhibition in vivo at 0.01 mg/kg stood at 13%, the inhibition in vivo at 0.1 mg/kg amounted to 25% and the inhibition in vivo at 1 mg/kg was found to be 75%. Moreover, the IC50 at aromatase (e) was determined as 23.4 nM.

`Cn1c(=O)sc2cc(C(c3ccccc3)n3ccnc3)ccc21` (racemic) [(E1)PCH28]: on aromatase (e), the IC50 came to 24.9 nM.

Regarding `Cn1c(=O)sc2cc(C(c3ccccc3)n3ccnc3)ccc21` (racemic) [(E2) PCH28], the IC50 at aromatase (e) was 22.6 nM.

For `Cn1c(=O)sc2cc(C(c3ccc(C#N)cc3)n3ccnc3)ccc21` (racemic) [PCH165 (+)CD4], the IC50 in assay [1] (setting [4]) was 8.81 nM.

For `Cn1c(=O)sc2cc(C(c3ccc(C#N)cc3)n3ccnc3)ccc21` (racemic) [PCH165 (+/−) CD4], in assay [1] (setting [4]), the IC50 turned out to be 4.54 nM. In assay [2], the inhibition in vivo at 0.001 mg/kg stood at 22%, the inhibition in vivo at 0.01 mg/kg was determined as 23% and the inhibition in vivo at 0.1 mg/kg was found to be 66%.

Take `Cn1c(=O)sc2cc(C(c3ccc(C#N)cc3)n3ccnc3)ccc21` (racemic) [PCH165 (−)CD4]: the IC50 in assay [1] (setting [4]) amounted to 4.94 nM.

In the case of `Cn1c(=O)oc2cc(C(c3ccccc3)n3ccnc3)ccc21` (centres unmarked) [AL22, 6-[1H-Imidazol-1-yl(phenyl)methyl]-3-methyl-1,3-benzoxazol-2(3H)-one], the IC50 in assay [1] (setting [3]) turned out to be 320 nM; on aromatase (e), 340 nM.

As for `COc1cc2oc(=O)[nH]c2cc1C(c1ccc(C#N)cc1)n1ccnc1` (centres unmarked) [GCA36], the IC50 in assay [1] (setting [4]) was 19.9 nM.

As to `N#Cc1ccc(C(c2ccc(C#N)cc2)n2cncn2)cc1` [Letrozole, reference compound], in assay [2], the inhibition in vivo at 0.001 mg/kg is 66%, the inhibition in vivo at 0.003 mg/kg came out at 74% and the inhibition in vivo at 0.01 mg/kg came to 90%. For the same molecule, the inhibition in vivo at 0.005 mg/kg in assay [2] (dose 5 μg/Kg) is 91%.

As to `N#Cc1ccc(C(c2ccc3oc(=O)[nH]c3c2)n2ccnc2)cc1` (centres unmarked) [PC11128], the IC50 in assay [1] (setting [4]) was 5.83 nM. Moreover, in assay [2], the inhibition in vivo at 0.001 mg/kg stood at 29%, the inhibition in vivo at 0.01 mg/kg amounted to 29% and the inhibition in vivo at 0.1 mg/kg worked out at 53%.

In the case of `O=c1[nH]c2cc(C(c3ccncc3)n3ccnc3)ccc2o1` (centres unmarked) [PC11129], the IC50 in assay [1] (setting [4]) turned out to be 26.8 nM.

In the case of `N#Cc1ccc(C(c2ccc3[nH]c(=O)sc3c2)n2ccnc2)cc1` (centres unmarked) [PC11215], the IC50 in assay [1] (setting [4]) was 4.04 nM. In assay [2], the inhibition in vivo at 0.001 mg/kg came to 0%, the inhibition in vivo at 0.01 mg/kg is 56% and the inhibition in vivo at 0.1 mg/kg was determined as 90%.

Take `O=c1[nH]c2ccc(C(c3ccccc3)n3ccnc3)cc2o1` (centres unmarked) [PCH10, 6-[1H-Imidazol-1-yl(phenyl)methyl]-1,3-benzoxazol-2(3H)-one]: the IC50 in assay [1] (setting [3]) stood at 84.6 nM; at aromatase (e) it was 103 nM.

For the molecule `Cn1c(=O)oc2cc(C(c3ccc(Cl)cc3)n3ccnc3)ccc21` (centres unmarked) [PCH15, 6-[(4-Chlorophenyl)(1H-imidazol-1-yl)methyl]-3-methyl-1,3-benzoxazol-2(3H)-one], the IC50 in assay [1] (setting [3]) was over 2000 nM.

Consider `Cn1c(=O)oc2cc(C(c3ccccc3)n3cncn3)ccc21` (centres unmarked) [PCH20, 3-Methyl-6-[phenyl(1H-1,2,4-triazol-1-yl)methyl]-1,3-benzoxazol-2(3H)-one], for which the IC50 in assay [1] (setting [3]) was over 3000 nM.

With `O=c1[nH]c2cc(C(c3ccccc3)n3cncn3)ccc2s1` (centres unmarked) [PCH132], the IC50 in assay [1] (setting [4]) worked out at 178 nM.

Take `Cn1c(=O)sc2ccc(C(c3ccccc3)n3cncn3)cc21` (centres unmarked) [PCH134]: the IC50 in assay [1] (setting [4]) amounted to 179 nM.

`Cn1c(=O)sc2cc(C(c3ccc(C#N)cc3)n3cncn3)ccc21` (centres unmarked) [PCH158]: the IC50 in assay [1] (setting [4]) turned out to be 8.71 nM. Also, in assay [2], the inhibition in vivo at 0.001 mg/kg is 54% and the inhibition in vivo at 0.01 mg/kg came to 56%.

For `Cn1c(=O)oc2ccc(C(c3ccc(Cl)cc3)n3cncn3)cc21` (centres unmarked) [PCH160, 5-[(4-Chlorophenyl)(1H-1,2,4-triazol-1-yl)methyl]-3-methyl-1,3-benzoxazol-2(3H)-one], in assay [1] (setting [4]), the IC50 was 18.7 nM.

Turning to `Cn1c(=O)oc2ccc(C(c3ccccc3)n3cncn3)cc21` (centres unmarked) [PCH183, 3-Methyl-5-[1H-1,2,4-triazol-1-yl(phenyl)methyl]-1,3-benzoxazol-2(3H)-one], in assay [1] (setting [4]), the IC50 was found to be 1810 nM.

For the molecule `O=c1[nH]c2cc(C(c3ccc(Cl)cc3)n3cncn3)ccc2o1` (centres unmarked) [PCH195], the concentration for half-maximal inhibition (IC50) in assay [1] (setting [4]) was 17.1 nM.

In the case of `Cn1c(=O)oc2ccc(C(c3ccc(Cl)cc3)n3cncn3)cc21` (centres unmarked) [PCH196], the IC50 in assay [1] (setting [4]) turned out to be 24.9 nM.

For the molecule `O=C1COc2cc(C(c3ccccc3)n3ccnc3)ccc2N1` (centres unmarked) [PCH211], the IC50 in assay [1] (setting [4]) worked out at 74.4 nM.

In the case of `CN1C(=O)COc2ccc(C(c3ccccc3)n3ccnc3)cc21` (centres unmarked) [PCH213], in assay [1] (setting [4]), the IC50 came out at 5.64 nM. In assay [2], the inhibition in vivo at 0.001 mg/kg turned out to be 0%, the inhibition in vivo at 0.01 mg/kg came out at 3% and the inhibition in vivo at 0.1 mg/kg stood at 5%.

As for `O=C1COc2ccc(C(c3ccccc3)n3ccnc3)cc2N1` (centres unmarked) [PCH218], the IC50 in assay [1] (setting [4]) was determined as 65.5 nM.

Consider `CN1C(=O)COc2ccc(C(c3ccc(C#N)cc3)n3ccnc3)cc21` (centres unmarked) [PCH222], for which the IC50 in assay [1] (setting [4]) stood at 3.44 nM. In addition, in assay [2], the inhibition in vivo at 0.001 mg/kg was 0%, the inhibition in vivo at 0.003 mg/kg amounted to 22% and the inhibition in vivo at 0.01 mg/kg was 32%.

For the molecule `CN1C(=O)COc2ccc(C(c3ccc(C#N)cc3)n3cncn3)cc21` (centres unmarked) [PCH223], in assay [2], the inhibition in vivo at 0.001 mg/kg worked out at 4%, the inhibition in vivo at 0.01 mg/kg turned out to be 22% and the inhibition in vivo at 0.1 mg/kg came out at 66%.

For the molecule `N#Cc1ccc(C(c2ccc3c(c2)NC(=O)CO3)n2ccnc2)cc1` (centres unmarked) [PCH225], in assay [1] (setting [4]), the IC50 is 9.9 nM.

With `O=C1CSc2cc(C(c3ccccc3)n3ccnc3)ccc2N1` (centres unmarked) [PCH227, 7-[1H-Imidazol-1-yl(phenyl)methyl]-1,4-benzothiazin-3(4H)-one], in assay [1] (setting [4]), the IC50 came out at 55.1 nM.

In the case of `N#Cc1ccc(C(c2ccc3c(c2)SCC(=O)N3)n2ccnc2)cc1` (centres unmarked) [PCH229], the IC50 in assay [1] (setting [4]) is 13.8 nM. In assay [2], the inhibition in vivo at 0.01 mg/kg turned out to be 11%, the inhibition in vivo at 0.1 mg/kg came out at 42% and the inhibition in vivo at 1 mg/kg is 83%.

As to `N#Cc1ccc(C(c2ccc3c(c2)SCC(=O)N3)n2cncn2)cc1` (centres unmarked) [PCH230], in assay [1] (setting [4]), the IC50 came to 34.8 nM. In assay [2], the inhibition in vivo at 0.01 mg/kg amounted to 2%, the inhibition in vivo at 0.1 mg/kg was determined as 22% and the inhibition in vivo at 1 mg/kg came to 74%.

With `CN1C(=O)CSc2cc(C(c3ccc(C#N)cc3)n3cncn3)ccc21` (centres unmarked) [PCH231], the concentration for half-maximal inhibition (IC50) in assay [1] (setting [4]) amounted to 56.6 nM.

In the case of `CN1C(=O)CSc2cc(C(c3ccc(C#N)cc3)n3ccnc3)ccc21` (centres unmarked) [PCH240], the IC50 in assay [1] (setting [4]) was found to be 5.38 nM.

`CCn1c(=O)sc2cc(C(c3ccc(C#N)cc3)n3ccnc3)ccc21` (centres unmarked) [PCH241]: the IC50 in assay [1] (setting [4]) is 4.29 nM. Moreover, in assay [2], the inhibition in vivo at 0.001 mg/kg is 18%, the inhibition in vivo at 0.003 mg/kg was determined as 37% and the inhibition in vivo at 0.01 mg/kg turned out to be 16%.

For `CCn1c(=O)sc2cc(C(c3ccc([N+](=O)[O-])cc3)n3cncn3)ccc21` (centres unmarked) [PCH243, 3-Ethyl-6-[(4-nitrophenyl)(1H-1,2,4-triazol-1-yl)methyl]-1,3-benzothiazol-2(3H)-one], the IC50 in assay [1] (setting [4]) stood at 3.99 nM.

For `Cn1c(=O)sc2cc(C(c3ccc(C#N)cc3)n3cnnn3)ccc21` (centres unmarked) [PCH248], the IC50 in assay [1] (setting [4]) worked out at 11.8 nM.

`Cn1c(=O)sc2cc(C(c3cccc(C#N)c3)n3cncn3)ccc21` (centres unmarked) [PCH258]: in assay [1] (setting [4]), the IC50 is 31.7 nM.

Take `Cn1c(=O)sc2cc(C(c3ccc([N+](=O)[O-])cc3)n3cncn3)ccc21` (centres unmarked) [PCH259]: the IC50 in assay [1] (setting [4]) was determined as 3.05 nM. Also, in assay [2], the inhibition in vivo at 0.001 mg/kg worked out at 31%, the inhibition in vivo at 0.01 mg/kg came to 63% and the inhibition in vivo at 0.1 mg/kg was found to be 88%.

Turning to `CCn1c(=O)sc2cc(C(c3ccc(C#N)cc3)n3cncn3)ccc21` (centres unmarked) [PCH260], the IC50 in assay [1] (setting [4]) was 4.49 nM. Further, in assay [2], the inhibition in vivo at 0.001 mg/kg was 32%, the inhibition in vivo at 0.01 mg/kg is 50% and the inhibition in vivo at 0.1 mg/kg amounted to 90%.

The values are drawn from patent US20070054899A1 (priority 2003, published 2007).
